From paper PMC9953353 (2023)

Experiments:
[1] = test system: truncated Thi-5R-18 (DNA, aptamer) GAAGGGCAAATAGCATAATGGATCACATTAGATGAGCCCAGGCTATGTGCG; assay: isothermal titration calorimetry; details: 5 mM KCl, 100 mM NaCl, 1 mM MgCl2; 50 mM Tris-HCl, pH 7.4, 25 °C; Kd could not be fitted; thiamethoxam 1 mM
[2] = test system: Thi-5R-18 (DNA, aptamer) ATAGGAGTCACGACGACCAGAAGGGCAAATAGCATAATGGATCACATTAGATGAGCCCAGGCTATGTGCGTCTACCTCTTGACTAAT; assay: isothermal titration calorimetry; details: 5 mM KCl, 100 mM NaCl, 1 mM MgCl2; 50 mM Tris-HCl, pH 7.4, 25 °C; 25 μM aptamer, 1 mM thiamethoxam
[3] = test system: Thi-5R-18 (DNA, aptamer) ATAGGAGTCACGACGACCAGAAGGGCAAATAGCATAATGGATCACATTAGATGAGCCCAGGCTATGTGCGTCTACCTCTTGACTAAT; assay: AuNP colorimetric aptasensor; details: NaCl 0.25 M added for aggregation; 10^−7 M tested; response below one tenth of thiamethoxam at 10^−8 M

SMILES | binding [1] | Kd [2] | binding [3]
O=[N+]([O-])N=C1NCCN1Cc1ccc(Cl)nc1 | – | – | weak
O=C(O)CNCP(=O)(O)O | – | – | weak

Next, values leading:

binding [1] | Kd [2] | binding [3] | SMILES
no | 49.35 µM | – | CN1COCN(Cc2cnc(Cl)s2)C1=N[N+](=O)[O-]
– | – | weak | CN/C(=N\[N+](=O)[O-])NCc1cnc(Cl)s1
– | – | weak | CNC(=N[N+](=O)[O-])NCC1CCOC1 (stereo not drawn)
